Square brackets hold non-standard residues; d marks the D form.
Assays:
TNBS-treated mice = assay: TNBS-induced Inflammatory Bowel Disease (IBD) model; type: in vivo; conditions: intranasal administration together with TNBS
Excerpt: Inflammatory Bowel Disease (IBD) was induced in mice by the administration of trinitrobenzenesulphonic acid (TNBS), in 40% EtOH, to the mice. […] The IBD model is described in, for example, Keates et al. (2000) Gastroenterology 119:972–82.
The administration of EtOH alone (no TNBS) caused no weight loss in the animals. The “untreated” mice were given only the TNBS administration. The aMSH(4-13) mice were given an administration of TNBS, together with an intranasal administration of the aMSH(4-13) analog, which reduced the severity of the TNBS-induced weight loss.

Leptin −/− mice = assay: Leptin -/- mouse model of obesity; type: in vivo; conditions: 1 μg daily for three weeks, intranasally, intrarectally or subcutaneously; compared to untreated mice; FIG. 18A
Experimental: Leptin −/− mice were used as a model of mammalian obesity to evaluate the effectiveness of an α-MSH analog and an α-MSH encoding nucleic acid to treat the condition. […] Leptin −/− obese mice were administered (either intranasally, intrarectally, or subcutaneously) with 1 μg of the α-MSH(4-13) analog daily for three weeks.

In the case of “Ac-CEH[dF]RWCKPV-NH2 (cysteine pairing not given here) [α-MSH(4-13) analog]”, the “survival of TNBS-treated animals” value (TNBS-treated mice) is reported as “increased the survival”, the TNBS-induced weight loss (TNBS-treated mice; FIG. 17A) is reported as “decreased the weight loss” and the weight gain (Leptin −/− mice) is reported as “a decrease in weight gain”.

Reference: patent US7169603B2, “α-MSH related compounds and methods of use” (MGI Pharma Biologics, Inc., priority 2000, dated 2007)
